Measurements from patent US20260250325A1, “Antiviral Polypeptide Membrane Fusion Inhibitor, and Preparation Method and Application Thereof” (priority 2025, published 2026).
Where a SMILES comes first, the peptide text is derived from it. The star is where a group is joined. Succinyl(4-O-cholesteryl) = CC(C)CCC[C@@H](C)[C@H]1CC[C@H]2[C@@H]3CC=C4C[C@@H](OC(=O)CCC(=O)*)CC[C@]4(C)[C@H]3CC[C@]12C

Test system: RSV A long virus strain
Assay type: cell-based
Details: RSV A long virus strain, HEp-2 cells, plaque reduction, 1 day; read-out: IC50
Method in brief: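 HEp-2 cells (30000/well) infected with 100 PFU virus premixed 1 h with compound (8 concentrations, duplicate); after 2 h adsorption, cultured 1 day at 37 °C under 0.8% CMC overlay with compound. Plaques immunostained (RSV antibody, TrueBlue) and counted; IC50 and CC50 by non-linear fitting of % inhibition versus virus and cell controls.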

`CC[C@H](C)[C@H](NC(=O)[C@H](CCCCN)NC(=O)[C@H](CCCCN)NC(=O)[C@H](CC(C)C)NC(=O)[C@H](CO)NC(=O)[C@H](CCC(=O)O)NC(=O)[C@H](CCC(=O)O)NC(=O)[C@@H](NC(=O)[C@H](CCCCN)NC(=O)[C@H](CCCCN)NC(=O)[C@H](CC(N)=O)NC(=O)[C@@H](NC(=O)[C@H](CCC(=O)O)NC(=O)[C@H](CCC(=O)O)NC(=O)[C@@H](NC(=O)[C@H](CCCCN)NC(=O)[C@H](CCCCN)NC(=O)[C@H](CC(=O)O)NC(=O)[C@H](Cc1ccccc1)NC(=O)[C@H](CCC(=O)O)NC(=O)[C@H](CC(=O)O)NC(=O)[C@H](CO)NC(C)=O)[C@@H](C)CC)C(C)C)[C@@H](C)CC)C(=O)N[C@@H](CCC(=O)O)C(=O)N[C@@H](CCC(=O)O)C(=O)N[C@@H](CO)C(=O)N[C@@H](CC(=O)O)C(=O)N[C@@H](CCCCN)C(=O)N[C@@H](CCCCN)C(=O)N[C@@H](CC(C)C)C(=O)N[C@@H](CCC(=O)O)C(=O)N[C@@H](C)C(=O)N[C@@H](C)C(=O)N[C@@H](C)C(=O)N[C@@H](CCCCN)C(=O)N[C@@H](CCCCNC(=O)CCC(=O)O[C@H]1CC[C@@]2(C)C(=CC[C@H]3[C@@H]4CC[C@H]([C@H](C)CCCC(C)C)[C@@]4(C)CC[C@@H]32)C1)C(N)=O` [Compound 16] (Ac-SDEFDKKIEEVNKKIEESLKKIEESDKKLEAAAKK(Succinyl(4-O-cholesteryl))-NH2) and `CC[C@H](C)[C@H](NC(=O)[C@H](CCCCN)NC(=O)[C@H](CCCCN)NC(=O)[C@H](CC(C)C)NC(=O)[C@H](CO)NC(=O)[C@H](CCC(=O)O)NC(=O)[C@H](CCC(=O)O)NC(=O)[C@@H](NC(=O)[C@H](CCCCN)NC(=O)[C@H](CCCCN)NC(=O)[C@H](CC(N)=O)NC(=O)[C@@H](NC(=O)[C@H](CCC(=O)O)NC(=O)[C@H](CCC(=O)O)NC(=O)[C@@H](NC(=O)[C@H](CCCCN)NC(=O)[C@H](CCCCN)NC(=O)[C@H](CC(=O)O)NC(=O)[C@H](Cc1ccccc1)NC(=O)[C@H](CCC(=O)O)NC(=O)[C@H](CC(=O)O)NC(=O)[C@H](Cc1c[nH]c2ccccc12)NC(C)=O)[C@@H](C)CC)C(C)C)[C@@H](C)CC)C(=O)N[C@@H](CCC(=O)O)C(=O)N[C@@H](CCC(=O)O)C(=O)N[C@@H](CO)C(=O)N[C@@H](CC(=O)O)C(=O)N[C@@H](CCCCN)C(=O)N[C@@H](CCCCN)C(=O)N[C@@H](CC(C)C)C(=O)N[C@@H](Cc1c[nH]cn1)C(=O)N[C@@H](CC(N)=O)C(=O)N[C@H](C(=O)N[C@@H](CCC(=O)O)C(=O)N[C@@H](C)C(=O)N[C@@H](C)C(=O)N[C@@H](C)C(=O)N[C@@H](CCCCN)C(=O)N[C@@H](CCCCNC(=O)CCC(=O)O[C@H]1CC[C@@]2(C)C(=CC[C@H]3[C@@H]4CC[C@H]([C@H](C)CCCC(C)C)[C@@]4(C)CC[C@@H]32)C1)C(N)=O)C(C)C` [Compound 44] (Ac-WDEFDKKIEEVNKKIEESLKKIEESDKKLHNVEAAAKK(Succinyl(4-O-cholesteryl))-NH2) are within 1.5-fold of each other in IC50: 10.3 nM for the first, 12.4 nM for the second.

“Ac-SLEQVNEKINQSLAFIRKSDEINQSDEEVNKSDELLEAAAKK-NH2 [Compound 50]” gave an IC50 of 15.1 nM.
